Numbered stars: 1 amine (or outer) side, 2 acyl side, 3 side chain; on linkers, the order of the positions; unused ones are H or OH. Bridge positions count the residues as written; N and C are the ends. Square brackets hold non-standard residues; d marks the D form. Peptide text beside a SMILES is read from it. Suc = O=C(CCC(=O)[*:2])[*:1]; Nle = CCCC[C@H](N)C(=O)O; Dab = NCC[C@H](N)C(=O)O

Chain of hMCR-4 (P32245 whole entry): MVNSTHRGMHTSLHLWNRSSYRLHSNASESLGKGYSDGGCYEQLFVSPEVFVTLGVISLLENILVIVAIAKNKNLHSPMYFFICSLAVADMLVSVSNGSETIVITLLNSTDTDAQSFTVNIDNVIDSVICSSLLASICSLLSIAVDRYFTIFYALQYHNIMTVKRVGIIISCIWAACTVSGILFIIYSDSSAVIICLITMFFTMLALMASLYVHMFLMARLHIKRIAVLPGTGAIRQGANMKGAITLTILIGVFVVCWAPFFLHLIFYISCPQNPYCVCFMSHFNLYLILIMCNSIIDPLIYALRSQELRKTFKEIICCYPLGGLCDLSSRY
Chain of hMCR-1 (Q01726 whole entry): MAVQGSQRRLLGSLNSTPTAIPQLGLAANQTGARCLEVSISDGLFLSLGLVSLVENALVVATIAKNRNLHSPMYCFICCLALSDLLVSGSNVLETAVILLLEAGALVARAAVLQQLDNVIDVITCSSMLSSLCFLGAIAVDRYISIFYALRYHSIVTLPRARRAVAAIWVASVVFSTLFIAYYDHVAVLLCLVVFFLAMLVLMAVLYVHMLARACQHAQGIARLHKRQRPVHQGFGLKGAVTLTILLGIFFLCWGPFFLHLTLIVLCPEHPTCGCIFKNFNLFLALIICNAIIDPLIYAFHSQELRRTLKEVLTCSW

One assay addresses hMCR-4 (Homo sapiens (Human), UniProt P32245). As to the kind of experiment: Competitive inhibition binding assay using [I125]-NDP-α-MSH, hMCR-4. The note with it: membrane homogenates of HEK-293 cells, human recombinant receptor, averaged, read-out: MC-4 Ki (average). The method, then:
A competitive inhibition binding assay was performed using membrane homogenates prepared from HEK-293 cells that express recombinant hMCR-1a or hMCR-4 (in each instance where the h prefix refers to human), or alternatively membrane homogenates from B16-F10 mouse melanoma cells containing endogenous murine MCR-1. In the examples that follow, all MCR-1 and MCR-4 values are for human recombinant receptors, unless otherwise noted. Assays were performed in 96 well polypropylene round-bottom plates (VWR catalog number 12777-030). […] After incubation for 90 minutes at 37° C., the assay mixture was filtered onto GF/B Unifilter plates (Perkin-Elmer catalog number 6005177) and washed with 3 mL of ice-cold buffer per well. Filters were air dried and 35 μL of scintillation cocktail added to each well. Plates were counted in a Microbeta counter for bound radioactivity. […] Each assay was conducted in duplicate and the actual mean values are described, with results less than 0% reported as 0%. Ki values for peptides of the present invention were determined using Graph-Pad Prism® curve-fitting software.
(§1) Peptides of the following structures were synthesized and averaged MCR-1 and MCR-4 Ki values were determined as indicated. […] All results are expressed in nM except for Emax values, which are percentage values. Peptides with the captioned primary sequence were synthesized and purified as described in Section 5 above, with the resulting peptide having the structure depicted.
As usually defined, the Ki is a dissociation constant, usually derived from enzyme kinetics or from competition with a known ligand. For the compound `CCCC[C@H](NC(C)=O)C(=O)N[C@H]1CCC(=O)NCCCC[C@@H](C(=O)N[C@@H](Cc2c[nH]c3ccccc23)C(N)=O)NC(=O)[C@H](CCCNC(=N)N)NC(=O)[C@@H](Cc2ccccc2)NC(=O)[C@H](Cc2c[nH]cn2)NC1=O` [Example 9.1, Ac-Nle-cyclo(Glu-His-D-Phe-Arg-Lys)-Trp-NH2], the Ki stood at 45 nM.
Same read-out and setting: for `CCCC[C@H](NC(C)=O)C(=O)N[C@H]1CCC(=O)NCC[C@@H](C(=O)N[C@@H](Cc2c[nH]c3ccccc23)C(N)=O)NC(=O)[C@H](CCCNC(=N)N)NC(=O)[C@@H](Cc2ccccc2)NC(=O)[C@H](Cc2c[nH]cn2)NC1=O` [Example 9.2, Ac-Nle-cyclo(Glu-His-D-Phe-Arg-Dab)-Trp-NH2] the value was 110 nM; for `CCCC[C@H](NC(C)=O)C(=O)N[C@H]1CCC(=O)NC[C@@H](C(=O)N[C@@H](Cc2c[nH]c3ccccc23)C(N)=O)NC(=O)[C@H](CCCNC(=N)N)NC(=O)[C@@H](Cc2ccccc2)NC(=O)[C@H](Cc2c[nH]cn2)NC1=O` [Example 9.3, Ac-Nle-cyclo(Glu-His-D-Phe-Arg-Dap)-Trp-NH2], 358 nM; for `CCCC[C@H](NC(C)=O)C(=O)N[C@H]1CCC(=O)NCCC[C@@H](C(=O)N[C@@H](Cc2c[nH]c3ccccc23)C(N)=O)NC(=O)[C@H](CCCNC(=N)N)NC(=O)[C@@H](Cc2ccccc2)NC(=O)[C@H](Cc2c[nH]cn2)NC1=O` [Example 9.6, Ac-Nle-cyclo(Glu-His-D-Phe-Arg-Orn)-Trp-NH2], 295 nM.
On the same count and under the same terms, for `CCCC[C@H](NC(C)=O)C(=O)N[C@H]1CCC(=O)NCC[C@@H](C(=O)N[C@H](Cc2c[nH]c3ccccc23)C(N)=O)NC(=O)[C@H](CCCNC(=N)N)NC(=O)[C@@H](Cc2ccccc2)NC(=O)[C@H](Cc2c[nH]cn2)NC1=O` [Example 9.7, Ac-Nle-cyclo(Glu-His-D-Phe-Arg-Dab)-D-Trp-NH2] the value was 33 nM; for `CCCC[C@H](NC(C)=O)C(=O)N[C@H]1CCC(=O)NCC[C@@H](C(=O)N[C@@H](Cc2c[nH]c3ccccc23)C(N)=O)NC(=O)[C@H](CCCNC(=N)N)NC(=O)[C@H](Cc2ccccc2)NC(=O)[C@H](Cc2c[nH]cn2)NC1=O` [Example 9.8, Ac-Nle-cyclo(Glu-His-Phe-Arg-Dab)-Trp-NH2], 10000 nM.
`CCCC[C@H](NC(C)=O)C(=O)N[C@H]1CCC(=O)NCC[C@@H](C(=O)N[C@H](Cc2cccc3ccccc23)C(N)=O)NC(=O)[C@H](CCCNC(=N)N)NC(=O)[C@@H](Cc2ccccc2)NC(=O)[C@H](Cc2c[nH]cn2)NC1=O` [Example 9.9, Ac-Nle-cyclo(Glu-His-D-Phe-Arg-Dab)-D-Nal 1-NH2]: the Ki is 2 nM.
Still for that read-out and setting: the value for `CCCC[C@H](NC(C)=O)C(=O)N[C@H]1CCC(=O)NCC[C@@H](C(=O)N[C@@H](Cc2ccc3ccccc3c2)C(N)=O)NC(=O)[C@H](CCCNC(=N)N)NC(=O)[C@@H](Cc2ccccc2)NC(=O)[C@H](Cc2c[nH]cn2)NC1=O` [Example 9.10, Ac-Nle-cyclo(Glu-His-D-Phe-Arg-Dab)-Nal 2-NH2] was 3 nM.
The same measure, in the same setting: the value for `CCCC[C@H](NC(C)=O)C(=O)N[C@H]1CCC(=O)NCC[C@@H](C(=O)N[C@H](Cc2ccc3ccccc3c2)C(N)=O)NC(=O)[C@H](CCCNC(=N)N)NC(=O)[C@@H](Cc2ccccc2)NC(=O)[C@H](Cc2c[nH]cn2)NC1=O` [Example 9.11, Ac-Nle-cyclo(Glu-His-D-Phe-Arg-Dab)-D-Nal 2-NH2] was 0.095 nM; that for `CC(=O)N[C@H](Cc1ccccc1)C(=O)N[C@H]1CCC(=O)NCC[C@@H](C(=O)N[C@@H](Cc2c[nH]c3ccccc23)C(N)=O)NC(=O)[C@H](CCCNC(=N)N)NC(=O)[C@@H](Cc2ccccc2)NC(=O)[C@H](Cc2c[nH]cn2)NC1=O` [Example 9.12, Ac-D-Phe-cyclo(Glu-His-D-Phe-Arg-Dab)-Trp-NH2] was 535 nM.
Regarding `N=C(N)NCCC[C@@H]1NC(=O)[C@@H](Cc2ccccc2)NC(=O)[C@H](Cc2c[nH]cn2)NC(=O)CCC(=O)NCC[C@@H](C(=O)N[C@@H](Cc2c[nH]c3ccccc23)C(N)=O)NC1=O` [Example 9.14, cyclo(Suc-His-Phe-Arg-Dab)-Trp-NH2] (H[dF]R[Dab]W-NH2; linker N-4 via Suc), the Ki was found to be 10000 nM.
In the case of `CCCCCC(=O)N[C@H]1CCC(=O)NCC[C@@H](C(=O)N[C@@H](Cc2c[nH]c3ccccc23)C(N)=O)NC(=O)[C@H](CCCNC(=N)N)NC(=O)[C@@H](Cc2ccccc2)NC(=O)[C@H](Cc2c[nH]cn2)NC1=O` [Example 9.17, CH3—(CH2)4—C(═O)-cyclo(Glu-His-D-Phe-Arg-Dab)-Trp-NH2], the Ki was 110 nM.
In the case of `CCCC[C@H](NC(C)=O)C(=O)N[C@H]1CCNC(=O)CCC(=O)NCC[C@@H](C(=O)N[C@@H](Cc2c[nH]c3ccccc23)C(N)=O)NC(=O)[C@H](CCCNC(=N)N)NC(=O)[C@@H](Cc2ccccc2)NC(=O)[C@H](Cc2c[nH]cn2)NC1=O` [Example 9.27], the Ki turned out to be 380 nM.
For the compound `CCCC[C@H](NC(C)=O)C(=O)N[C@H]1CNC(=O)CCC(=O)NC[C@@H](C(=O)N[C@@H](Cc2c[nH]c3ccccc23)C(N)=O)NC(=O)[C@H](CCCNC(=N)N)NC(=O)[C@@H](Cc2ccccc2)NC(=O)[C@H](Cc2c[nH]cn2)NC1=O` [Example 9.28], the Ki came to 680 nM.
Same read-out and setting: the value for `CCCC[C@H](NC(C)=O)C(=O)N[C@H]1CCNC(=O)CCC(=O)NC[C@@H](C(=O)N[C@@H](Cc2c[nH]c3ccccc23)C(N)=O)NC(=O)[C@H](CCCNC(=N)N)NC(=O)[C@@H](Cc2ccccc2)NC(=O)[C@H](Cc2c[nH]cn2)NC1=O` [Example 9.29] was 325 nM.
For `CCCC[C@H](NC(C)=O)C(=O)N[C@H]1CCC(=O)NCC[C@@H](C(=O)N[C@@H](Cc2cccc3ccccc23)C(N)=O)NC(=O)[C@H](CCCNC(=N)N)NC(=O)[C@@H](Cc2ccccc2)NC(=O)[C@H](Cc2c[nH]cn2)NC1=O` [Example 9.30, Ac-Nle-cyclo(Glu-His-D-Phe-Arg-Dab)-Nal 1-NH2], the Ki was 0.75 nM.
Same read-out and setting: for `CCCC[C@H](NC(C)=O)C(=O)N[C@H]1CCC(=O)NCC[C@@H](C(=O)N[C@@H](Cc2c[nH]c3ccccc23)C(N)=O)NC(=O)[C@H](CCCNC(=N)N)NC(=O)[C@@H](Cc2ccccc2)NC(=O)[C@H](C)NC1=O` [Example 9.36, Ac-Nle-cyclo(Glu-Ala-D-Phe-Arg-Dab)-Trp-NH2] the value was 455 nM; for `CCCC[C@H](NC(C)=O)C(=O)N[C@H]1CCC(=O)NCC[C@@H](C(=O)N[C@@H](Cc2c[nH]c3ccccc23)C(N)=O)NC(=O)[C@H](CCCNC(=N)N)NC(=O)[C@@H](Cc2ccccc2)NC(=O)[C@H](CCCNC(=N)N)NC1=O` [Example 9.37, Ac-Nle-cyclo(Glu-Arg-D-Phe-Arg-Dab)-Trp-NH2], 20 nM.
Same read-out and setting: for `CCCC[C@H](NC(C)=O)C(=O)N[C@H]1CCC(=O)NCC[C@@H](C(=O)N[C@@H](Cc2c[nH]c3ccccc23)C(N)=O)NC(=O)[C@H](CCCNC(=N)N)NC(=O)[C@@H](Cc2ccccc2)NC(=O)[C@H](CCCNC(N)=O)NC1=O` [Example 9.38, Ac-Nle-cyclo(Glu-Cit-D-Phe-Arg-Dab)-Trp-NH2] the value was 98 nM.
Same read-out and setting: the value for `CCCC[C@H](NC(C)=O)C(=O)N[C@H]1CCC(=O)NCC[C@@H](C(=O)N[C@@H](Cc2c[nH]c3ccccc23)C(N)=O)NC(=O)[C@H](CCCNC(=N)N)NC(=O)[C@@H](Cc2ccccc2)NC(=O)[C@H](CCCCN)NC1=O` [Example 9.40, Ac-Nle-cyclo(Glu-Lys-D-Phe-Arg-Dab)-Trp-NH2] was 95 nM; that for `CCCC[C@H](NC(C)=O)C(=O)N[C@H]1CCC(=O)NCC[C@@H](C(=O)N[C@@H](Cc2c[nH]c3ccccc23)C(N)=O)NC(=O)[C@H](CCCNC(=N)N)NC(=O)[C@@H](Cc2ccccc2)NC(=O)[C@H](CCN)NC1=O` [Example 9.41, Ac-Nle-cyclo(Glu-Dab-D-Phe-Arg-Dab)-Trp-NH2] was 98 nM.
For the compound `CCCC[C@H](NC(C)=O)C(=O)N[C@H]1CCC(=O)NCC[C@@H](C(=O)N[C@@H](Cc2c[nH]c3ccccc23)C(N)=O)NC(=O)[C@H](CCCNC(=N)N)NC(=O)[C@@H](Cc2ccccc2)NC(=O)[C@H](CCCN)NC1=O` [Example 9.42, Ac-Nle-cyclo(Glu-Orn-D-Phe-Arg-Dab)-Trp-NH2], the Ki was 45 nM.
Same read-out and setting: the value for `CCCC[C@H](NC(C)=O)C(=O)N[C@H]1CCC(=O)NCC[C@@H](C(N)=O)NC(=O)[C@H](CCCNC(=N)N)NC(=O)[C@@H](Cc2ccccc2)NC(=O)[C@@H]2CCCN2C1=O` [Example 9.65, Ac-Nle-cyclo(Glu-Pro-D-Phe-Arg-Dab)-NH2] was 10000 nM.

For a further assay, the target named is hMCR-1 (Homo sapiens (Human), UniProt Q01726). The assay is described as follows: Assay for agonist activity: intracellular cAMP accumulation in HBL human melanoma cells. The assay is classed as cell-based. The note with it: HBL cells, maximum efficacy compared to reference agonist NDP-α-MSH. The method, then:
Confluent HBL cells that express hMCR-1 or HEK-293 cells that express recombinant hMCR-4 were detached from culture plates by incubation in enzyme-free cell dissociation buffer. Dispersed cells were suspended in Earle's Balanced Salt Solution containing 10 mM HEPES (pH 7.5), 1 mM MgCl2, 1 mM glutamine, 0.5% albumin and 0.3 mM 3-isobutyl-1-methyl-xanthine (IBMX), a phosphodiesterase inhibitor. The cells were plated in 96-well plates at a density of 0.4×10^5 cells per well for HBL cells and 0.5×10^5 cells per well for HEK-293 cells and pre-incubated for 10 minutes. Cells were exposed for 15 minutes at 37° C. to peptides of the present invention dissolved in DMSO (final DMSO concentration of 1%) at a concentration range of 0.05-5000 nM in a total assay volume of 200 μL. […] Data analysis was performed by nonlinear regression analysis with Graph-Pad Prism® software.
as §1
(cAMP levels reflect the balance of adenylyl cyclase and phosphodiesterase activity.)
As for `CCCC[C@H](NC(C)=O)C(=O)N[C@H]1CCC(=O)NCC[C@@H](C(N)=O)NC(=O)[C@H](CCCNC(=N)N)NC(=O)[C@@H](Cc2ccccc2)NC(=O)[C@H](Cc2c[nH]cn2)NC1=O` [Example 9.44, Ac-Nle-cyclo(Glu-His-D-Phe-Arg-Dab)-NH2] (Ac-[Nle]EH[dF]R[Dab]-NH2; lactam 2-6), the “MC-1 Emax (average; cAMP HBL)” value amounted to 85% ^.
